Consider 1 compound from patent publication US9981972B2, “N-hydroxy bicyclic hydantoin carbamates as tools for identification of serine hydrolase targets” (ABIDE THERAPEUTICS, INC., priority 2014, dated 2018).

The nature of one data set: Solubility in PBS. Particulars: phosphate buffered saline, aqueous buffer, kinetic from dmso stock, PBS pH 7.4, 1% DMSO, 22° C. It counts as physicochemical. Here is the method: The solubility of compounds were tested in triplicate in phosphate buffered saline (PBS), pH 7.4. Per well, 198 μL PBS is added to a Millipore Solvinert Hydrophilic PTFE 96 well filter plate: pore size: 0.45 μm (MSRLN0450). Test compounds were introduced from 10 mM DMSO stock solutions (2 μL). The final concentration of DMSO was 1 percent. Samples were allowed to incubate at 22° C. for 18 hours. In the morning the plate was centrifuged where the soluble portion passes through the filter and was collected in a capture plate. Clotrimazole was included as a control to assure the assay was working properly. The samples were analyzed by HPLC. Peak area was compared to a standard of known concentration.

Data set [1] concerns SH anti-targets in HeLa cells. In words: Gel-based competitive ABPP in situ, cultured HeLa cells, anti-targets. It counts as cell-based, human. Particulars: 2 h, any compound concentration, ABHD6 not visible. Here is the method: Assay Overview: The purpose of this assay was to determine IC50 values of powder samples of test compounds for enzyme of interest activity in situ using a gel-based competitive ABPP assay. In this assay, cultured cells were treated with test compound, harvested, and lysed. The isolated soluble proteome fraction was reacted with FP-Rh and analyzed by SDS-PAGE as described above.
Protocol Summary: To cultured HeLa cells (90% confluent) was added fresh DMEM (5 mL total volume; supplemented with 10% FCS) pre-mixed with DMSO or test compound. After 2 hours at 37° C., cells were harvested by scraping, washed twice with 10 mL DPBS, and homogenized by sonication in DPBS. The soluble fraction was isolated by centrifugation (100K×g, 45 minutes) and the protein concentration was adjusted to 1 mg/mL with DPBS. FP-Rh (1 μL of 50× stock in DMSO) was added to a final concentration of 2 μM in 50 μL total reaction volume. […] The percentage activity remaining was determined by measuring the integrated optical density of the enzymes of interest, and anti-target bands relative to a DMSO-only (no compound) control. […]
Compound 1 is active in situ against the LYPLA enzymes (see FIG. 3A) as assessed by gel-based competitive ABPP with FP-Rh following two hours of compound treatment of HeLa cells cultured in serum-supplemented medium.

In a further data set the target is T1, ABHD6 (Homo sapiens, UniProt Q9BV23).
T1 construct: endogenous in cells; host or cells: HeLa
T1 sequence (Q9BV23 whole entry): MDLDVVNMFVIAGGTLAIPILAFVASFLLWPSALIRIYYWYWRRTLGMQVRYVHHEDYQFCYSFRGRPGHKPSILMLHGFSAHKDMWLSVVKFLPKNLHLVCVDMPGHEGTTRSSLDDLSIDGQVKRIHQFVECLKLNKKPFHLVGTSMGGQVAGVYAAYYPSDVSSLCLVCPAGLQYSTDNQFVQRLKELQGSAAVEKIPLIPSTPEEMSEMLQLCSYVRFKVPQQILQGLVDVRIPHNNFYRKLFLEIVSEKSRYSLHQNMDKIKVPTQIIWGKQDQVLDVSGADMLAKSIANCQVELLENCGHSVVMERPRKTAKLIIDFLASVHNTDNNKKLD
In words: Selectivity analysis by ABPP-SILAC, HeLa cells in situ, FP-biotin. In kind it is cell-based. Conditions: 2 h in situ, read-out: inhibition of anti-target ABHD6 (ABPP-SILAC). The source says: (§1) Competitive ABPP-SILAC (Adibekian, A., et al. J Am Chem Soc, 2012. 134(25): p. 10345-8) combined competitive ABPP (Leung, D., et al. Nat Biotechnol, 2003. 21(6): p. 687-91) with stable isotope labeling of cells (SILAC) (Ong, S. E., et al. Mol Cell Proteomics, 2002. 1(5): p. 376-86), and allowed for precise quantitation of enzyme inhibition by calculating the isotopic ratios of peptides from inhibitor-treated and control cells.
(§2) Assay Overview: The purpose of this assay was to determine the selectivity profile of powder samples of test compounds using stable isotope labeling with amino acids in cell culture (SILAC) ABPP. In this assay, cultured HeLa cells were metabolically labeled with light or heavy amino acids. Light and heavy cells were treated with inhibitor and DMSO, respectively, in situ. Cells were harvested, and proteome fractions were isolated and reacted with the serine-hydrolase-specific activity-based affinity probe fluorophosphonate-biotin (FP-biotin). Light and heavy samples were combined in a 1:1 (w/w) ratio. Biotinylated proteins were enriched, trypsinized, and analyzed by LC/LC-MS/MS (MudPIT) Inhibition of target and anti-target activity was quantified by comparing intensities of light and heavy peptide peaks. […] Proteins not targeted by inhibitors were expected to have a ratio close to 1.
(§3) Sample Preparation. HeLa cells were initially grown for at least eight passages in either light or heavy SILAC DMEM medium supplemented with 10% dialyzed FCS and 1× PenStrep Glutamine in a humidified incubator (37° C., 5% CO2). Light medium was supplemented with 100 μg/mL L-arginine (Sigma) and 100 μg/mL L-lysine (Sigma). Heavy medium was supplemented with 100 μg/mL [13C615N4]-L-Arginine (Isotek) and 100 μg/mL [13C615N2]-L-Lysine (Isotek). […]
(§4) LC-MS/MS analysis. Samples were analyzed by multidimensional liquid chromatography tandem mass spectrometry (MudPIT) using an Agilent 1200-series quaternary pump and Thermo Scientific LTQ Orbitrap Velos ion trap mass spectrometer. […]

The test system of a further data set is human LYPLA1/2. The description is as above. In kind it is cell-based. Particulars: 1 μM, 2 h in situ.
Text: as §1, §2, §3, §4

Another data set concerns the target T2, MAGL (Homo sapiens, UniProt Q99685).
T2 construct: endogenous in cells; host or cells: HeLa
The data set is described as above. It counts as cell-based. Conditions: 2 h in situ.
Text: as §1, §2, §3, §4

In brackets after ≈: the same amount, converted by molar mass.

The solubility is the dissolved amount per volume that the medium holds. A word on the inhibition: it is how much of the control response was suppressed.

T2 sequence (Q99685 whole entry): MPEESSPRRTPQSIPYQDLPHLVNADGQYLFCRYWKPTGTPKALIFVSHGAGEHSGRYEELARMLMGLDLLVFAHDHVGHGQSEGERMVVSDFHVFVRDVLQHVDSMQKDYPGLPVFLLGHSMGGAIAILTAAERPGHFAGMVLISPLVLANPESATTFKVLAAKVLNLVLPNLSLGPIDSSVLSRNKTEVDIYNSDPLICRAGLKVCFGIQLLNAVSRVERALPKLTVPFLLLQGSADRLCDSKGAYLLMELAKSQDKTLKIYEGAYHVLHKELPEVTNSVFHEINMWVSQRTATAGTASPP

Turning to `O=C(ON1C(=O)C2CN(C(=O)N3CCOCC3)CCN2C1=O)N1CCC(CCc2ccc(Cl)cc2)CC1` (centres unmarked) [Compound 1, 7-(morpholine-4-carbonyl)-1,3-dioxohexahydroimidazo[1,5-a]pyrazin-2(3H)-yl 4-(4-chloro-phenethyl)piperidine-1-carboxylate], the solubility at 18 h in the data set “Solubility in PBS” amounted to 18 µM (≈ 9.61 µg/mL). Besides, the “anti-target inhibition in situ” value in data set [1] is “No anti-target inhibition”. In addition, the results for the inhibition at 1 µM on ABHD6 and against MAGL were more than 90% and approximately 40%, respectively. In addition, in the data set with human LYPLA1/2, the “inhibition of human LYPLA1/2 (ABPP-SILAC)” value is more than 90%.
